Measurements reported in PMC6130796, “Copper-Catalyzed Syntheses of Pyrene-Pyrazole Pharmacophores and Structure Activity Studies for Tubulin Polymerization” (ACS Omega, 2018).
Entries after “also recorded” stand apart in the source; their conditions may differ.

Columns and labels:
MCF-7 cells [1] = test: MTT assay in MCF-7 cells; type: cell-based; settings: for IC50: MCF-7, MTT; for viability at 10 µM: read-out: viable cells
Text: (§1) An in vitro cancer cell two-dimensional culture model was used for this study using 3-(4,5-dimethylthiazole-2-yl)-2,5-diphenyltetrazolium bromide (MTT) assay.[19]
(§2) The cell viability of PPPs was investigated using 3-(4,5-dimethylthiazole-2-yl)-2,5-diphenyltetrazolium bromide (MTT) reduction assay in the presence of 10% fetal bovine serum in antibiotic free media. The yellow tetrazolium salt (MTT) is modified by mitochondrial dehydrogenases to its purple formazan derivative (MTT-formazan) with maximum absorbance at 560–570 nm. […] Experiment was performed in 96-well plates (Cellstar, Germany) growing 10 000 cells (MCF-7, MDA-MB231, and MCF-10A) per well for 24 h before treatments. Experiments were performed for various concentrations of PPPs ranging from 10^5 to 10^0 nM and compared with Taxol as positive control ranging from 10^2 to 10^–3 nM, as described in particular experiment. Cells were incubated for 48 h before performing the MTT assay. At the end of the incubation period, cells were treated with MTT (20 μL, 5 mg/mL) per well and further incubated for 4 h. At the end of the incubation, the entire medium was removed from the wells and 200 μL of dimethyl sulfoxide (DMSO) was added to dissolve blue-colored formazan crystals produced by mitochondrial respirations. The percentage cell viability was obtained by calculating absorbance values and calculated using the formula %viability = {[A630(treated cells) – (background)]/[A630(untreated cells) – background]} × 100.

MDA-MB231 cells = test: MTT assay in MDA-MB231 cells; type: cell-based
Text: as §1, §2

human melanoma C32 cells = test: MTT assay in C32 cells; type: cell-based; settings: 48 h
Text: as §1, §2

MCF-10A cells = test: MTT assay in noncancerous MCF-10A cells; type: cell-based, human; settings: 10 μM, 48 h
Protocol: Effectivity of anticancer drugs not only depends on cancer inhibition property but minimum effect to noncancerous normal cells. A representative study was performed on MCF-10A cells of noncancerous nature and human breast origin. […] It indicates the selectivity of PPPs toward cancer cells, presumably due to higher variation in tubulin polymerization processes.
as §2

MCF-7 cells [2] = test: Cell growth density study (bright field images); type: cell-based; settings: MCF-7, 1 μM
tubulin [3] = test: In vitro microtubule polymerization assay (fluorescence); type: biochemical; design: dose or concentration left out as unconfirmed; settings: 37 °C, 1.5 h, λex 350 nm, 430 nm
Protocol: To gather further insight into the molecular mechanism of action of PPPs, an in vitro cytoskeleton assay was carried out to investigate the effect of these agents on microtubule polymerization (Figure 1). In this protocol, 85 μL of 10 mg/mL tubulin stock was incubated with tubulin glycerol buffer for 1.5 h at 37 °C in the presence of various PPPs at a fixed concentration (20 mM). Following this, the degree of tubulin polymerization was evaluated by observing their fluorescence profile with time.
The content of polymerized microtubules was monitored by measuring fluorescence intensity at 430 nm (λex = 350 nm) every 7 s for 1.5 h. Paclitaxel (PTXL), a well-known microtubule stabilizer, was added to the assay as a positive control, whereas the tubulin glycerol buffer acted as a negative control. […] This implies that addition of PPP1–7 into the assay led to a stabilization of microtubule polymerization. […] Further inspection to correlate between the obtained trend in tubulin polymerization and modifications attempted at the N-1 and C-3 positions yielded interesting observations. […]
Unless otherwise mentioned, the reagents and chemicals were purchased from Sigma-Aldrich (St. Louis, MO) and used without any purification. […] High-resolution mass spectra (HRMS) were recorded on a quad time-of-flight electrospray ionization (ESI)-MS instrument.

tubulin [4] = test: SDS-PAGE of PPP-tubulin mixtures, band intensity of polymerized tubulin (FIJI); type: biochemical; settings: Coomassie stain, among all PPP–tubulin mixtures
Protocol: With this promising result, we further focused on confirming the polymerization of microtubules. PPP–tubulin mixtures were collected from the abovementioned assay, and a sodium dodecyl sulfate polyacrylamide gel electrophoresis (SDS-PAGE) was performed to separate both tubulin as well as polymerized tubulin from the mixture. […] Two distinct bands were obtained, one in the region of 40–55 kDa, which is consistent with the molecular weight of α-, β-tubulin,[16] and other in the region of 130 kDa. This is presumably a result of tubulin polymerization. A semiquantitative analysis of the polymerized tubulin bands was performed using FIJI[17] to calculate the band intensities, as shown in Figure 2b. Fold change of band intensities was further calculated with respect to PPP5–tubulin mixture (Figure 2c).  Figure 2 (a) Coomassie-stained gel lanes for tubulin–dye mixtures, showing two migrating populations, polymerized tubulin (∼130 kDa MW), and α-, β-tubulin (∼50 kDa MW). A representative molecular weight standard lane is also shown across the sample lanes for comparison.

[5] = Homo sapiens, MCF7, MCF-7, 10 μM, 48 h

Compound | viability at 10 µM (MCF-7 cells [1]; [5]) [%] | IC50 (MCF-7 cells [1]; Homo sapiens, MCF7, 48 h) [µM] | IC50 (MDA-MB231 cells; Homo sapiens, MDA-MB-231, 48 h) [µM] | IC50 (human melanoma C32 cells; Homo sapiens) [µM] | cell death in noncancerous cells (MCF-10A cells) | also measured
1-(Benzo[b]thiophen-2-yl)-3-methyl-5-(pyren-1-yl)-1H-pyrazole [PPP3] | – | – | – | – | – | viable cells (MCF-7 cells [1]; MCF-7, 10 μM, 48 h): 52 ± 5%; IC50 (MCF-7 cells [1]; 48 h): > 100 µM; IC50 (MDA-MB231 cells; 48 h): > 100 µM; IC50 (human melanoma C32 cells): > 100 µM
Cc1cc(-c2ccc3ccc4cccc5ccc2c3c45)n(-c2ccccc2)n1 [PPP1, 3-Methyl-1-phenyl-5-(pyren-1-yl)-1H-pyrazole] | 50 ± 5 | 60 ± 10 | > 100 | > 100 | did not result in any significant cell death | –
Cc1cc(-c2ccc3ccc4cccc5ccc2c3c45)n(-c2ccc(-c3ccccc3)cc2)n1 [PPP2, 1-([1,1′-Biphenyl]-4-yl)-3-methyl-5-(pyren-1-yl)-1H-pyrazole] | 45 ± 3 | 34 ± 4 | 15 ± 5 | > 100 | – | –
c1ccc(-c2cc(-c3ccc4ccc5cccc6ccc3c4c56)n(-c3ccccc3)n2)cc1 [PPP4, 1,3-Diphenyl-5-(pyren-1-yl)-1H-pyrazole] | 30 ± 3 | 1 ± 0.5 | 0.5 ± 0.2 | 5 ± 2 | did not result in any significant cell death | loss in cell growth density (MCF-7 cells [2]): maximum loss
c1ccc(-c2ccc(-n3nc(-c4ccccc4)cc3-c3ccc4ccc5cccc6ccc3c4c56)cc2)cc1 [PPP5, 1-([1,1′-Biphenyl]-4-yl)-3-phenyl-5-(pyren-1-yl)-1H-pyrazole] | 70 ± 10 | > 100 | > 100 | > 100 | – | effect on microtubule polymerization (fluorescence intensity with time) (tubulin [3]): inhibits microtubule formation; also recorded: inhibition of microtubule polymerization; band intensity of polymerized tubulin (∼130 kDa) (tubulin [4]): least
Cc1cc(-c2ccc3ccc4cccc5ccc2c3c45)[nH]n1 [PPP6, 3-Methyl-5-(pyren-1-yl)-1H-pyrazole] | 55 ± 5 | 43 ± 5 | > 100 | > 100 | – | –
O=C(O)c1cc(-c2ccc3ccc4cccc5ccc2c3c45)n(-c2ccccc2)n1 [PPP7, 1-Phenyl-5-(pyren-1-yl)-1H-pyrazole-3-carboxylic Acid] | 50 ± 5 | 8 ± 2 | 10 ± 2 | 14 ± 2 | did not result in any significant cell death | –
CC(=O)O[C@H]1C(=O)[C@@]2(C)[C@H]([C@H](OC(=O)c3ccccc3)[C@]3(O)C[C@H](OC(=O)[C@H](O)[C@@H](NC(=O)c4ccccc4)c4ccccc4)C(C)=C1C3(C)C)[C@]1(OC(C)=O)CO[C@@H]1C[C@@H]2O [Taxol, Paclitaxel, reference compound] | – | – | – | – | – | effect on microtubule polymerization (fluorescence intensity with time) (tubulin [3]; listed as PTXL): increase in relative fluorescence intensity; also recorded: stabilizing the tubulin polymerization reaction; cell growth level (MCF-7 cells [1]; MCF-7, positive control, Figure 4b): 42 ± 10%
